Patent US20210198629A1, “COMPOSITIONS AND METHODS FOR INCREASING BEIGING OF WHITE ADIPOSE TISSUE” (University of Georgia Research Foundation, Inc., priority 2018, published 2021)

Assays:
[1] = tested on: iWAT and eWAT of diet-induced obesity (DIO) mice; assay: Oral BI-7273 in DIO mice: WAT beiging, H/E, UCP1 IHC, RT-qPCR, mitochondrial copy number; format: in vivo, mouse; settings: for mRNA levels of Ucp1, increase: vs control mice
Experimental: All animal studies were approved by the University of Georgia Institutional Animal Care and Use Committee (IACUC) and performed strictly following the guidelines Animals were housed in a temperature-controlled (22° C.) environment with 12:12-hrs light:dark cycle and allowed food and water […]. All mouse strains were purchased from the Jackson Laboratory: C57BL/6J: #000664; Ucp1-Cre: #024670; ROSA-INTACT: #021039. To generate diet-induced obesity and type 2 diabetes models, 8-week old C57BL/6J mice (both males and females) were fed with a high-fat diet (60% fat, Research Diet, catelog #D12492) for […]. To perform gavage feeding, animals were immobilized by hands and a gavage solution (0.5% Natrosol or 0.5% Natrosol containing BI-7273, […]) was administered through a 1 mL syringe equipped with a disposable gavage needle.
For histology, iWAT was excised from mice and fixed with 10% formalin, dehydrated and embedded in paraffin. The sliced tissue (5 μm) was stained with hematoxylin and eosin Y (Sigma Aldrich). Cell size was quantified by NIH ImageJ (ver 1.47t). Alternative sections were used for immunohistochemistry detection of UCP1 and H/E staining. Paraffin sections were antigen unmasked with Tris-EDTA buffer (10 mM Tris Base, 1 mM EDTA, 0.05% Tween 20, pH 9.0) in 93° C. for 15 min. Sections were blocked with blocking solution (10% normal goat serum and 1% BSA in PBS) for 1 hr at room temperature and incubated with the primary antibody (anti-UCP1, 1:200 diluted in blocking solution) overnight at 4° C. The endogenous peroxidase was quenched with 3% hydrogen peroxide. Sections were incubated with the secondary antibody for 1 hr at room temperature. Slides were developed with DAB (VectorLab) for 5 min followed with hemotoxylin conterstaining for 1 min. Color images were captured on a Leica DM4000B microscope equipped with a DFC450c camera.
Total RNA was isolated from tissue or cell culture using TRIzol. Total RNA (500 ng) from tissues or cell culture was used in 25 μL reverse transcription reactions (Maxima; Life technologies) and diluted into 250 μL. Diluted cDNA (2 μL) was used in quantitative PCR reactions (SsoAdvanced™ Universal SYBR Green mix; Bio-Rad) on a BioRad CFX384™ Real-Time PCR Detection System. Cq-values were determined and expression values were calculated by BioRad CFX Manager™ Software. Relative mRNA expression values were normalized to inner reference genes Rps18 and Tbp of each biological sample. For mitochondrial copy number qPCR, mitochondrial Cox2 gene was amplified and normalized to genomic β-globin gene.
[…]. The efficacy of BI-7273 in inducing beige adipocyte formation in vivo was tested within diet-induced obesity (DIO) and type 2 diabetes mouse models. To generate DIO models, adult C57BL/6 mice (8-week age, both males and females) were fed with a high-fat diet (HFD; 60% calories from fat) for 12 weeks. To administer BI-7273, BI-7273 mixed in 0.5% Natrosol (100 mg/kg/day, 200 uL) was gavaged for 14 days. For the control mice, 0.5% Natrosol in the same volume was gavaged during the same period. The high-fat diet was changed to the normal chow during gavaging to maximize the uptake of BI-7273. DIO models of control and BI-7273 treatment groups were euthanized after 14-day of gavaging and adipose tissues (iWAT and eWAT) were subjected to H/E staining and UCP1 immunohistochemistry (IHC) to identify beige adipocytes. […].

[2] = tested on: primary white adipose progenitor cells; assay: RT-qPCR of markers after treating proliferative primary white adipose progenitor cells, then basal differentiation
Experimental: Tissue suspension was sequentially filtered through 100 and 70 μm cell strainers and centrifuged at 800×g for 5 min to pellet SVF cells.
The cell pellet was resuspended in a growth medium (DMEM high glucose containing 20% FBS and 1% penicillin/streptomycin), plated on collagen-coated cell culture plates, and cultured at 37° C. with 5% CO2. To expand adipose progenitor cells, proliferative adipose progenitor cells were passaged for two times when the confluence reaches 70%.
To differentiate into adipocytes, white adipose progenitor cells were cultured in growth media to reach 100% confluence for 1 day. […] After 2-day induction, the media was changed to basal differentiation medium (DMEM high glucose containing 10% FBS, 850 nM insulin, 1% penicillin/streptomycin) and further incubated for 4-5 days. To differentiate beige adipocytes, fully confluent white adipose progenitor cells were incubated with the above induction medium supplemented with 2 mM rosiglitazone and 1 nM T3 for 2 days and further differentiated in the basal differentiation medium supplemented with 1 mM rosiglitazone and 1 nM T3 for 4-5 days.

DIO mice = assay: Indirect calorimetry of DIO mice after oral BI-7273; format: in vivo, mouse
Experimental: Indirect calorimetry was performed on a Columbus Instruments CLAMS system equipped with 8 metabolic cages. Oxygen consumption (VO2; ml/min) and carbon dioxide production (VCO2; ml/min) were measured at 22° C. with 12-hr:12-hr dark:light cycles. Total energy expenditure was estimated using the equation published before […]). Data were normalized to the body weight of each animal. Physical activity is measured by counting infrared beam breaking events.
Next, whether oral administration of BI-7273 is sufficient to increase the whole-body energy expenditure was investigated. DIO models were gavaged with BI-7273 or control 0.5% Natrosol for 14 days as described above and later housed individually in metabolic cages for 10 days. […] HFD-fed control DIO models had very low respiratory exchange ratios (RER; ˜0.6 in light cycles and 0.72 in dark cycles), which is consistent with their high lipid utilization and insulin resistance (IR) states.

[3] = eWAT, 100 mg/kg/day gavage for 14 days
[4] = iWAT, 100 mg/kg/day gavage for 14 days
[5] = 10 μM for 48 hours in progenitor stage, then basal differentiation, vs 0.1% DMSO
[6] = light and dark cycles, after 14-day gavage

COc1cc(-c2cn(C)c(=O)c3cnccc23)cc(OC)c1CN(C)C [BI-7273, 4-[4-[(dimethylamino)methyl]-3,5-dimethoxyphenyl]-2-methyl-2,7-naphthyridin-1-one]
mRNA levels of Pgc1β, increase [1, 3]: 4.9 fold | mRNA levels of Ucp1, increase [1, 3]: 6 fold | Pgc1β expression ([1]; iBAT, limb muscles (TA, EDL), and liver): increased | other beige adipocyte markers (Cedia, Dio2, Elovl3, Cox8b) ([1]; iWAT and eWAT, 100 mg/kg/day gavage for 14 days): increased | overall size of adipocytes ([1]; iWAT and eWAT, 100 mg/kg/day gavage for 14 days, H/E): overtly reduced | multiocular UCP1+pos beige adipocytes ([1]; iWAT and eWAT, 100 mg/kg/day gavage for 14 days, UCP1 IHC): induced the formation | Pgc1α mRNA levels ([1]; iWAT or eWAT, 100 mg/kg/day gavage for 14 days): not affected | mitochondrial genome copy number, higher than control DIO mice ([1]; iWAT, eWAT, iBAT, limb muscles, liver): 2.5-8.5 folds | mRNA levels of Pgc1β, increase [1, 4]: 3.8 fold | mRNA levels of Ucp1, increase [1, 4]: 22 fold | adipocyte markers (Pparg2, Leptin, Adiponectin, Fabp4) [2, 5]: not affected | mRNA levels of beige lineage markers (Pgc1α, Ucp1, Cedia, Dio2, Elovl3) [2, 5]: drastically increased | mRNA levels of mitochondrial markers (Ndufb2, Sdha, Uqcrc2, Cox8b, Atp5a1) [2, 5]: increased | Pgc1β mRNA level ([2]; proliferative white adipose progenitor cells, vs vehicle): increased | respiratory exchange ratio (RER) (DIO mice; light and dark cycles): markedly increased | oxygen consumption (VO2) (DIO mice; [6]): drastically increased | total energy expenditure (E.E.) (DIO mice; [6]): drastically increased | physical activity (DIO mice; vs control, light or dark cycles): comparable
